PubChem BioAssay (NCI)
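Method: 48-hour compound exposure of cells in 96-well plates, five concentrations, linear interpolation of endpoints. GI50: concentration for 50% inhibition of growth. At the TGI there is no net growth.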

Tests used:
Test in all cases: NCI tumour cell line growth inhibition, 48 h
CAKI-1 renal = test system: CAKI-1 renal
CCRF-CEM leukemia = test system: CCRF-CEM leukemia
HL-60(TB) leukemia = test system: HL-60(TB) leukemia
K-562 leukemia = test system: K-562 leukemia
LOX IMVI melanoma = test system: LOX IMVI melanoma
MALME-3M melanoma = test system: MALME-3M melanoma
OVCAR-5 ovarian = test system: OVCAR-5 ovarian
T-47D breast = test system: T-47D breast
UACC-257 melanoma = test system: UACC-257 melanoma
PC-3 prostate = test system: PC-3 prostate

| Compound | GI50 (CAKI-1 renal) [µM] | TGI (CAKI-1 renal) [µM] | GI50 (CCRF-CEM leukemia) [µM] | TGI (CCRF-CEM leukemia) [µM] | GI50 (HL-60(TB) leukemia) [µM] | TGI (HL-60(TB) leukemia) [µM] | GI50 (K-562 leukemia) [µM] | TGI (K-562 leukemia) [µM] | GI50 (LOX IMVI melanoma) [µM] | TGI (LOX IMVI melanoma) [µM] | GI50 (MALME-3M melanoma) [µM] | TGI (MALME-3M melanoma) [µM] | GI50 (OVCAR-5 ovarian) [µM] | TGI (OVCAR-5 ovarian) [µM] | GI50 (T-47D breast) [µM] | TGI (T-47D breast) [µM] | GI50 (UACC-257 melanoma) [µM] | TGI (UACC-257 melanoma) [µM] | GI50 (PC-3 prostate) [µM] | TGI (PC-3 prostate) [µM] |
| --- | --- | --- | --- | --- | --- | --- | --- | --- | --- | --- | --- | --- | --- | --- | --- | --- | --- | --- | --- | --- |
| Cc1cc(NCCCNc2ccnc3cc(Cl)ccc23)nc(N2CCN(C)CC2)n1 | 3.12 | 11.2 | 2.59 | 14.7 | 2.99 | 9.06 | 1.86 | 11.7 | 2 | 5.2 | 2.12 | 4.47 | 11.6 | 43.2 | 6.7 | 30.9 | 1.8 | 3.88 |  |  |
| CCOC(=O)c1sc2ncn(Cc3cccc(Br)c3)c(=O)c2c1C | 24.6 | 97.5 |  |  | 28.7 | > 100 | 16.8 | > 100 | 84.9 | > 100 |  |  | > 100 | > 100 | 36.5 | > 100 | 21.1 | 84.4 | 25.5 | > 100 |
| N#Cc1cccc(OCc2nc(N)nc(N)c2-c2ccc(Cl)c(Cl)c2)c1 | 0.893 | > 100 | 2.03 | > 100 | 1.55 | > 100 | 0.384 | > 100 | 0.575 | > 100 |  |  | 6.87 | > 100 | 8.25 | > 100 | 2.92 | > 100 | 0.604 | > 100 |
| Nc1cc(C(=O)O)[nH]c(=O)n1 |  | > 100 |  | > 100 |  | > 100 |  | > 100 |  | > 100 |  | > 100 |  | > 100 |  |  |  | > 100 |  | > 100 |
| CN(C)CCN(C)CC1COC(C)(C)O1 (stereo not drawn) |  | > 100 |  | > 100 |  | > 100 |  | > 100 |  | > 100 |  | > 100 |  | > 100 |  |  |  | > 100 |  |  |
| COC(c1cccc(C(O)(C(F)(F)F)C(F)(F)F)c1)(C(F)(F)F)C(F)(F)F |  | 39.7 |  |  |  |  |  |  |  | 34.1 |  | 35.3 |  | 32.4 |  |  |  | 42.3 |  |  |
| CN(CCCCCl)P(=O)(OCc1ccc([N+](=O)[O-])o1)OCC1OC(n2ccc(N)nc2=O)C(F)(F)C1O (stereo not drawn) | 0.223 |  |  |  | 1.56 | 17.7 | 13 | > 100 | 0.754 | > 40.6 |  |  | 1.92 | > 100 |  |  | 17.2 | > 100 | 1.82 | 99.3 |
| COc1cc2c3c(n(CCCN(CCN)CCCn4c5c(c6cc(OC)c(OC)cc6c4=O)C(=O)c4cc6c(cc4-5)OCO6)c(=O)c2cc1OC)-c1cc2c(cc1C3=O)OCO2 | 0.271 | 3.23 | 0.116 | 0.407 |  |  | 2.73 | > 32.5 | 0.57 | 6.32 |  |  | 3.78 | 18.9 | 0.457 | > 100 | 11.6 | > 89.1 | 2.57 | > 45.2 |
